Source: patent US20080038321A1, “PROPHYLACTIC/THERAPEUTIC COMPOSITIONS FOR LIVER DISEASES” (Ajinomoto Co., Inc., priority 2004, published 2008)
Entries after “also recorded” stand apart in the source; their conditions may differ.

Tests used:
TRB3 [1] = assay: Suppressive effects of amino acids on TRB3 expression in cultured hepatocytes (Fao cells, quantitative PCR); type: cell-based, rat; conditions: 3 h, minus amino acid medium plus one L-amino acid 1 mM (or standard medium), mRNA, minus amino acid medium = 1.00, n = 4, mean ± SD
Protocol: Suppressive effects of twenty-two amino acids on TRB3 expression in rat hepatic cancer-derived Fao cells were examined.
The standard medium is a medium corresponding to the minus amino acid medium, except for further containing amino acids listed in Table 2.
RNAs were extracted from the cultured cells, the expression levels of TRB3 gene were determined through quantitative polymerase chain reaction (PCR), and the suppressive effects of amino acids on TRB3 expression were determined and compared with data of TRB3 expression induced upon amino acid starvation. The gene expression was corrected with reference to β-actin expression level. The correction was carried out in the same manner in the after-mentioned genes.
The data were corrected and expressed while taking the average of TRB3 mRNA levels after three-hour cultivation in the minus amino acid medium as 1.00.

TRB3 [2] = assay: as above; type: cell-based, rat; conditions: other experiments; 0.03 mM to 0.3 mM
G6Pase [3] = assay: Liver gene expression in GK rats after 8 weeks L-Asp diet (quantitative PCR): G6Pase; type: in vivo, rat; conditions: 3% L-Asp diet (3AS), CON group = 1.00
Protocol: (§4) Specifically, L-Asp as mixed in a diet was administered to GK rats over a long time, and the effect of the administration on gene expression in the liver and disease state was determined.
(§5) Male 6-week-old GK rats were purchased, pre-fed for one week, grouped into the following groups each including five rats, the diet was replaced with experimental diets, and the rats were fed with the experimental diets for eight weeks.
On week eight of administration, the liver was extirpated after eighteen-hour fasting, RNAs were extracted, and the gene expressions were determined through quantitative PCR and compared.

TRB3 [4] = assay: Liver gene expression in high-fat diet GK rats after 6-week administration (quantitative PCR): TRB3; type: in vivo, rat
Description: (§1) The mRNA levels are expressed while defining the level in the SD group as 1.00. <Primer Sequence>

GK rats = assay: Long-term L-Asp in diet to GK rats: fasting blood glucose and insulin; type: in vivo, rat; conditions: 3% L-Asp-containing diet (3AS), 6 weeks, n = 5, mean ± SD
Protocol: as §4, §5
CON group: administered with a control diet
3AS group: administered with a 3% L-Asp-containing diet
6AS group: administered with a 6% L-Asp-containing diet
The fasting blood glucose level is generally considered to be an index reflecting the basal insulin secretion and the insulin resistance.

PPAR-alpha = assay: Liver gene expression in high-fat diet GK rats after 6-week administration (quantitative PCR): PPAR-alpha; type: in vivo, rat
Description: as §1

malic enzyme (ME) gene = assay: Liver gene expression profiling in GK rats (Gene Chip Rat Genome U34A Array): ME; type: in vivo; conditions: 8 weeks, CON group = 1.00
Protocol: (§2) Gene expression profiling was conducted using samples containing equivalent amounts of genes in the liver of individuals in the individual groups. The gene expression profiling was carried out with the Gene Chip Rat Genome U34A Array (Affymetrix Inc.). […] This is because the two genes relate to steatogenesis.
(§3) The mRNA levels are expressed while defining the level in the CON group as 1.00.

HNF-4α = HNF-4α mRNA in Fao cells with L-Asp, L-Ala or both (quantitative PCR); type: cell-based, rat; conditions: 3 h, L-Asp 0.05 mM, L-Ala 0.03 mM or both
Protocol: Whether the suppressive effect of L-Asp on TRB3 expression in rat hepatocyte-derived Fao cells is increased by adding L-Ala as another amino acid was studied. Whether the expression of HNF-4α is increased was also studied. Fao cells were inoculated on a 24-well plate to an amount of 2×10^5 cells/well, and the cells were cultivated in a 10% fetal bovine serum-containing RPMI 1640 medium (supplied from Nacalai Tesque, Inc.; Code No. 30264-85) at 37° C. in an atmosphere of 5% CO2 overnight. On the following day, the medium was replaced with one of a 10% fetal bovine serum-containing RPMI medium from which all amino acids had been removed (minus amino acid medium; Table 1) and media corresponding to the minus amino acid medium, except with L-Asp (concentration: 0.05 mM), L-Ala (concentration: 0.03 mM), or both added, and the cells were further cultivated at 37° C. in 2.5% CO2 atmosphere for three hours. RNAs were extracted from the cultured cells, and the TRB3 mRNA levels and the HNF-4α mRNA levels were determined through quantitative polymerase chain reaction (PCR) (Table 10).

[5] = tested on: stearoyl-Coenzyme A desaturase 1 (SCD1) gene; assay: Liver gene expression profiling in GK rats (Gene Chip Rat Genome U34A Array): SCD1; type: in vivo; conditions: 8 weeks, CON group = 1.00
Protocol: as §2, §3

[6] = tested on: GK rats fed with high-fat diets; assay: GK rats fed with high-fat diets: body weight, fasting glucose, insulin, triglyceride, liver triglyceride
CPT-1 = assay: Liver gene expression in high-fat diet GK rats after 6-week administration (quantitative PCR): CPT-1; type: in vivo, rat
Description: as §1

G6Pase [7] = assay: Liver gene expression in high-fat diet GK rats after 6-week administration (quantitative PCR): G6Pase; type: in vivo, rat
Description: as §1

[8] = tested on: glucose-6-phosphatase (G6Pase); assay: Effect of L-Asp on G6Pase expression suppressive action of insulin in Fao cells (quantitative PCR); type: cell-based, rat; conditions: for G6Pase expression level: 6 h, -Asp RPMI without insulin = 1.00; for G6Pase expression level (value in parentheses): -Asp RPMI at same insulin concentration = 1.00
Protocol: To verify whether an amino acid showing a TRB3 expression suppressive action actually increases the insulin action on hepatocytes, how L-Asp acts on glucose-6-phosphatase (G6Pase) expression suppressive action of insulin in rat hepatic cancer-derived Fao cells was studied.
Fao cells were inoculated on a 24-well plate and cultured overnight. Thereafter, 0, 0.3, and 1.0 mM L-Asp and 0, 10^−10, 10^−8, and 10^−6 M insulin were added respectively to a basal medium corresponding to RPMI 1640 medium containing no glucose but 0.1% BSA, except with L-Asp being removed therefrom, and the cells were further cultivated for six hours. RNAs were extracted from the cultured cells, and the expression levels of G6Pase were determined through quantitative PCR.
The G6Pase expression level in −Asp RPMI medium added with no insulin is defined as 1.00.
The values in the parentheses are values while defining the G6Pase expression levels in −Asp RPMI medium at respective insulin concentrations as 1.00, respectively.

[9] = HFD + Asp, HFD = 1.00 in table, n = 6, mean
[10] = HFD + Asp, 6-week administration, HFD = 1.00 in table, n = 6, mean
[11] = L-Asp administration, 6 weeks, HFD
[12] = before administration (baseline), HFD with about 6% L-Asp or 0.01% pioglitazone
[13] = week 3, HFD with about 6% L-Asp or 0.01% pioglitazone
[14] = week 6, HFD with about 6% L-Asp or 0.01% pioglitazone

N[C@@H](CC(=O)O)C(=O)O [L-Asp, L-aspartic acid]
TRB3 expression level (TRB3 [1]): 0.724 ± 0.13 | TRB3 expression level (TRB3 [1]; listed as aspartic acid): significantly suppressed TRB3 expression | suppression of TRB3 expression (TRB3 [2]): significantly suppresses the TRB3 expression | G6Pase mRNA level in liver (G6Pase [3]): 0.99 ± 0.15 | TRB3 mRNA level in liver (TRB3 [4]; [9]): 0.58 | TRB3 expression relative to HFD group (TRB3 [4]; HFD plus Asp group): 0.58 time | Fasting blood glucose level (GK rats): 151 ± 4.8 mg/dL | PPARα mRNA level in liver (PPAR-alpha; [10]): 1.34 | PPAR-alpha gene expression (PPAR-alpha; [11]): 1.34 time | ME mRNA level in liver (malic enzyme (ME) gene; 3% L-Asp diet (3AS)): 0.55 | ME mRNA level in liver (malic enzyme (ME) gene; 6% L-Asp diet (6AS)): 0.62 | expression level of HNF-4α mRNA (HNF-4α): 1.3 time | HNF4α mRNA level (HNF-4α; minus amino acid medium = 1.00): 1.30 | SCD1 mRNA level in liver ([5]; 3% L-Asp diet (3AS)): 0.78 | SCD1 mRNA level in liver ([5]; 6% L-Asp diet (6AS)): 0.71 | lipid droplet accumulation around the hepatic portal vein region (histological study) ([6]; HFD plus Asp group): improved (reduced) lipid droplet accumulation | increase in fasting blood glucose level and fasting plasma insulin level (insulin resistance) ([6]; HFD plus Asp group compared with HFD group): less increase in these parameters; also recorded: substantially equivalent to that of the pioglitazone group | fasting plasma triglyceride ([6]; HFD plus Asp group compared with SD group): decreased fasting plasma triglyceride | Fasting blood glucose level [6, 12]: 100 ± 8 mg/dL | Fasting insulin level [6, 12]: 0.5 ± 0.3 ng/mL | Fasting triglyceride level [6, 12]: 92 ± 20 mg/dL | Fasting blood glucose level [6, 13]: 124 ± 7 mg/dL | Fasting insulin level [6, 13]: 1.6 ± 0.4 ng/mL | Fasting triglyceride level [6, 13]: 77 ± 14 mg/dL | Fasting blood glucose level [6, 14]: 110 ± 10 mg/dL | Fasting insulin level [6, 14]: 1.5 ± 0.2 ng/mL | Fasting triglyceride level [6, 14]: 70 ± 16 mg/dL | Triglyceride content in liver [6, 14]: 28 ± 5 mg/g | CPT-1 mRNA level in liver (CPT-1; [10]): 1.20 | CPT-1 gene expression (CPT-1; [11]): 1.20 time | G6Pase mRNA level in liver (G6Pase [7]; [9]): 0.52 | G6Pase expression relative to HFD group (G6Pase [7]; HFD plus Asp group): 0.52 time | G6Pase expression level ([8]; 0.3 mM Asp, insulin 0 M): 0.603 | G6Pase expression level (value in parentheses) ([8]; 0.3 mM Asp, insulin 0 M): 0.60 | G6Pase expression level ([8]; 0.3 mM Asp, insulin 10^-6 M): 0.014 | G6Pase expression level (value in parentheses) ([8]; 0.3 mM Asp, insulin 10^-6 M): 0.60 | G6Pase expression level ([8]; 0.3 mM Asp, insulin 10^-8 M): 0.022 | G6Pase expression level (value in parentheses) ([8]; 0.3 mM Asp, insulin 10^-8 M): 0.70 | G6Pase expression level ([8]; 0.3 mM Asp, insulin 10^-10 M): 0.100 | G6Pase expression level (value in parentheses) ([8]; 0.3 mM Asp, insulin 10^-10 M): 0.67 | G6Pase expression level ([8]; 1 mM Asp, insulin 0 M): 0.397 | G6Pase expression level (value in parentheses) ([8]; 1 mM Asp, insulin 0 M): 0.40 | G6Pase expression level ([8]; 1 mM Asp, insulin 10^-6 M): 0.008 | G6Pase expression level (value in parentheses) ([8]; 1 mM Asp, insulin 10^-6 M): 0.36 | G6Pase expression level ([8]; 1 mM Asp, insulin 10^-8 M): 0.016 | G6Pase expression level (value in parentheses) ([8]; 1 mM Asp, insulin 10^-8 M): 0.52 | G6Pase expression level ([8]; 1 mM Asp, insulin 10^-10 M): 0.076 | G6Pase expression level (value in parentheses) ([8]; 1 mM Asp, insulin 10^-10 M): 0.51 | G6Pase expression suppressive action ([8]; L-Asp alone, glucose starvation): G6Pase expression suppressive action even if used alone | G6Pase expression suppression ([8]; L-Asp in combination with insulin): increased G6Pase expression suppression when used in combination with insulin
